Measurements published in ChEMBL document CHEMBL3044824, “Synthesis and Acaricidal Activity of 1-Arylmethyl-2-arylimidazolidines” (2001).

What was measured:
Format in all cases: functional
Tetranychus urticae [1] = assay: Acaricidal activity against Tetranychus urticae (two-spotted spider mite) in second leaf stage of Phaseolus vulgaris var. Serena assessed as mortality at 500 ppm after 7 days
Tetranychus urticae [2] = assay: Acaricidal activity against Tetranychus urticae (two-spotted spider mite) in second leaf stage of Phaseolus vulgaris var. Serena assessed as mortality at 100 ppm after 7 days
Tetranychus urticae [3] = assay: Acaricidal activity against Tetranychus urticae (two-spotted spider mite) in second leaf stage of Phaseolus vulgaris var. Serena assessed as mortality at 200 ppm after 7 days
Tetranychus urticae [4] = assay: Acaricidal activity against Tetranychus urticae (two-spotted spider mite) in second leaf stage of Phaseolus vulgaris var. Serena assessed as mortality at 50 ppm after 7 days

SMILES | Activity (Tetranychus urticae [1]) | Activity (Tetranychus urticae [2]) | Activity (Tetranychus urticae [3]) | Activity (Tetranychus urticae [4])
Clc1ccccc1C1=NCCN1Cc1ccccc1 | >80% | 25% | 50% | –
Fc1cccc(F)c1C1=NCCN1Cc1ccc(Cl)cc1 | >80% | >80% | >80% | 25%
c1ccc(C2=NCCN2Cc2ccncc2)cc1 | >80% | >80% | 50% | –
Clc1ccc(CN2CCN=C2c2ccccc2)cn1 | 50% | – | <24% | –
Clc1ccc(CN2CCN=C2c2ccccc2)c(Cl)c1 | 25% | – | – | –
Cc1ccc(CN2CCN=C2c2ccccc2)cc1 | <24% | – | – | –
c1ccc(CN2CCN=C2c2ccccc2)cc1 | 50% | – | 25% | –
Clc1ccccc1CN1CCN=C1c1ccccc1 | >80% | 25% | 50% | –
Clc1cccc(C2=NCCN2Cc2ccccc2)c1 | <24% | – | – | –
Clc1ccc(C2=NCCN2Cc2ccccc2)cc1 | <24% | – | – | –
Clc1ccc(CC2=NCCN2Cc2ccc(Cl)cc2)cc1 | <24% | – | – | –
Clc1ccc(CN2CCN=C2c2cccnc2)cn1 | 50% | – | 25% | –
c1ccc(CC2=NCCN2Cc2ccccc2)cc1 | <24% | – | – | –
Fc1cccc(F)c1C1=NCCN1Cc1ccccc1 | >80% | >80% | >80% | >80%
CC(C)(C)c1ccc(CN2CCN=C2c2ccccc2)cc1 | >80% | 25% | 50% | –
COc1ccc(CN2CCN=C2c2ccccc2)cc1 | <24% | – | – | –
c1ccc(C2=NCCN2Cc2ccc(-c3ccccc3)cc2)cc1 | >80% | 50% | >80% | 25%
Clc1ccc(CN2CCCN=C2c2ccccc2)cc1 | 50% | – | 25% | –
CC1(C)CN=C(c2ccccc2)N(Cc2ccc(Cl)cc2)C1 | >80% | 25% | 50% | –
c1ccc(CN2CCN=C2c2cccnc2)cc1 | 25% | – | – | –
c1ccc(C2=NCCN2c2ccccc2)cc1 | <24% | – | – | –
Clc1ccc(CN2CCN=C2c2ccccc2)cc1 | >80% | >80% | >80% | >80%
c1cncc(CN2CCN=C2c2cccnc2)c1 | >80% | 25% | 50% | –
c1ccc(C2=NCCN2Cc2cccnc2)cc1 | >80% | 25% | 50% | –
c1ccc(CCN2CCN=C2c2ccccc2)cc1 | 25% | – | – | –
Clc1ccc(CN2CCN=C2c2cccnc2)cc1 | >80% | 50% | >80% | 25%
Clc1cccc(Cl)c1CN1CCN=C1c1ccccc1 | >80% | – | 25% | –
Clc1cccc(CN2CCN=C2c2ccccc2)c1 | >80% | – | 25% | –
